Patent US8759334B2, “Compounds useful for the treatment of metabolic and inflammatory diseases” (Galapagos NV, priority 2011, dated 2014)

molecular target: T1, GPR43 (Homo sapiens, UniProt O15552); assay: Calcium mobilization assay without probenecid; format: cell-based; settings: GPR43 stably expressing cells, triggered with sodium acetate at EC80, read-out: GPR43 assay without probenicid IC50
T1 construct: expressed in transfected cells
T1 sequence (O15552 1-330): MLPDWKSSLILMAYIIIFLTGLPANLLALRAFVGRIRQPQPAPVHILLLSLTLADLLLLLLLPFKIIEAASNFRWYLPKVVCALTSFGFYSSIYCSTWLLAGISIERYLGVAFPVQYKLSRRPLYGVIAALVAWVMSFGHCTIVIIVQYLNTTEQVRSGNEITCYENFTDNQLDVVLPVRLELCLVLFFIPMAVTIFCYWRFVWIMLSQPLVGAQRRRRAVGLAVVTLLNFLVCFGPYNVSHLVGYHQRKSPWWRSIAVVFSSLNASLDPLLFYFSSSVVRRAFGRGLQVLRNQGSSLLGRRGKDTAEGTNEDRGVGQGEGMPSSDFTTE
Method: The following assay can be used for determination of GPR43 activation. The assay measures intracellular calcium release induced by activation of GPR43. On day 1, GPR43 stably expressing cells were detached with mild trypsinization (Trypsin, 0.25% with EDTA 4Na, 5× diluted in PBS) centrifuged at 1000 rpm for 5 min and resuspended at 6.000 cells/25 μL medium (DMEM supplemented with 10% FBS, 10 μg/mL puromycin and 1% Pen/Strep). The cells were distributed in poly-D-lysine coated 384 well plates (black with clear bottom, 25 μL/well) and incubated overnight at 37° C. 10% CO2. On day 2, 25 μL of a fluorescent Ca^2+ indicator (Calcium 4 assay; Molecular Devices) was added on top of the cells and incubated for 2 h at 37° C. Subsequently, compounds at increasing concentration (10 μL/well) were added to the plate and incubated for 15 min at 37° C. Finally the cells were triggered with sodium acetate at EC80 concentration (concentration which gives 80% of the activity of the GPR43) and the Ca-flux was measured simultaneously to the trigger injection on a fluorescence plate reader (FlexStation3), this measures the antagonist activity of the compounds. To measure agonist activity of the compounds, compound was added to the well and the Ca-flux was measured simultaneously to the injection of compound.

Compared with `Cc1cc(C)cc(CC(=O)N2CCC2(C)C(=O)N(CCCC(=O)O)Cc2ccc(Cl)cc2)c1` (stereo not drawn) [Compound 64, 4-((4-Chloro-benzyl)-{1-[2-(3,5-dimethyl-phenyl)-acetyl]-2-methyl-azetidine-2-carbonyl}-amino)-butyric acid], `Cc1cc(C)cc(CC(=O)N2CC[C@@]2(C)C(=O)N(CC(=O)O)Cc2ccc(Cl)cc2)c1` [Compound 81a, ((4-Chloro-benzyl)-{(S)-1-[2-(3,5-dimethyl-phenyl)-acetyl]-2-methyl-azetidine-2-carbonyl}-amino)-acetic acid] is higher in IC50: 101 to 500 nM for the first, over 1000 nM for the second. The first is the more potent here.

`CC1(C(=O)N(CCCO)Cc2ccc(Cl)cc2)CCN1C(=O)Cc1csc2ccccc12` (stereo not drawn) [Compound 70, 1-(2-Benzo[b]thiophen-3-yl-acetyl)-2-methyl-azetidine-2-carboxylic acid (4-chloro-benzyl)-(3-hydroxy-propyl)-amide] and `CN(Cc1ccc(Cl)cc1)C(=O)C1(C)CCN1C(=O)Cc1csc2ccccc12` (stereo not drawn) [Compound 13, 1-(2-Benzo[b]thiophen-3-yl-acetyl)-2-methyl-azetidine-2-carboxylic acid (4-chloro-benzyl)-methyl-amide] fall in the same range of IC50: 101 to 500 nM for the first, 101 to 500 nM for the second.

`CC1(C(=O)NCc2ccc(Cl)cc2)CCN1C(=O)Cc1ccc(Cl)cc1Cl` (stereo not drawn) [Compound 1, 1-[2-(2,4-Dichloro-phenyl)-acetyl]-2-methyl-azetidine-2-carboxylic acid 4-chloro-benzylamide] and `Cc1cc(C)cc(CC(=O)N2CCC2(C)C(=O)N(CCO)Cc2ccc(Cl)cc2)c1` (stereo not drawn) [Compound 47, 1-[2-(3,5-Dimethyl-phenyl)-acetyl]-2-methyl-azetidine-2-carboxylic acid (4-chloro-benzyl)-(2-hydroxy-ethyl)-amide] fall in the same range of IC50: 101 to 500 nM for the first, 101 to 500 nM for the second.

Compound `COC(=O)CCN(Cc1ccc(Cl)cc1)C(=O)C1(C)CCN1C(=O)Cc1cc(C)cc(C)c1` (stereo not drawn) [Compound 62, 3-((4-Chloro-benzyl)-{1-[2-(3,5-dimethyl-phenyl)-acetyl]-2-methyl-azetidine-2-carbonyl}-amino)-propionic acid methyl ester] has an IC50 of 501 to 1000 nM.

molecular target: T1, GPR43; assay: Calcium mobilization assay with probenecid; format: cell-based; settings: GPR43 stably expressing cells; triggered with sodium acetate at EC80; 2.5 mM probenecid; read-out: GPR43 assay with probenicid IC50
Method in brief: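 […] being added at rising concentrations to a GPR43 stable line. Before this, cells were dye-loaded (Calcium 4 with 2.5 mM probenecid) for 2 h at 37 °C after overnight plating.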

First: COc1ccc(Cl)c(OC(=O)N2CCC2(C)C(=O)N(CCCC(=O)O)Cc2ccc(Cl)cc2)c1 (stereo not drawn) [Compound 215, 4-(1-((2-chloro-5-methoxyphenoxy)carbonyl)-N-(4-chlorobenzyl)-2-methylazetidine-2-carboxamido)butanoic acid]
Second: CC1(C(=O)N(CCCC(N)=O)Cc2ccc(Cl)cc2)CCN1C(=O)c1csc2ccccc12 (stereo not drawn) [Compound 158, 1-(Benzo[b]thiophene-3-carbonyl)-2-methyl-azetidine-2-carboxylic acid (3-carbamoyl-propyl)-(4-chloro-benzyl)-amide]
The IC50 of the first is higher: over 1000 nM for the first, 101 to 500 nM for the second. The second is the more potent here.

First: COc1ccccc1CC1(C(=O)N(CCCC(=O)O)Cc2cccc(Cl)c2)CCN1C(=O)c1csc2ccccc12 (stereo not drawn) [Compound 247, 4-(1-(benzo[b]thiophene-3-carbonyl)-N-(3-chlorobenzyl)-2-(2-methoxybenzyl)azetidine-2-carboxamido)butanoic acid]
Second: O=C(O)CCCN(Cc1cccc(Cl)c1)C(=O)C1(Cc2ccc(F)cc2)CCN1C(=O)c1csc2ccccc12 (stereo not drawn) [Compound 219, 4-(1-(benzo[b]thiophene-3-carbonyl)-N-(3-chlorobenzyl)-2-(4-fluorobenzyl)azetidine-2-carboxamido)butanoic acid]
The IC50 of the first is higher: over 1000 nM for the first, 101 to 500 nM for the second. The second is the more potent here.

First: CCOC(=O)CCCN(Cc1ccc(C(F)(F)F)cc1)C(=O)C1(C)CCN1C(=O)Cc1coc2ccccc12 (stereo not drawn) [Compound 167, 4-[[1-(2-Benzofuran-3-yl-acetyl)-2-methyl-azetidine-2-carbonyl]-(4-trifluoromethyl-benzyl)-amino]-butyric acid ethyl ester]
Second: CCOC(=O)CCCN(Cc1cccc(Cl)c1)C(=O)C1(C)CCN1C(=O)Cc1csc2ccccc12 (stereo not drawn) [Compound 147, 4-[[1-(2-Benzo[b]thiophen-3-yl-acetyl)-2-methyl-azetidine-2-carbonyl]-(3-chloro-benzyl)-amino]-butyric acid ethyl ester]
The IC50 of the first is higher: over 1000 nM for the first, 501 to 1000 nM for the second. The second is the more potent here.

Compared with `Cc1ccc(C)c(CC(=O)N2CCC2(C)C(=O)N(C)Cc2ccc(Cl)cc2)c1` (stereo not drawn) [Compound 41, 1-[2-(2,5-Dimethyl-phenyl)-acetyl]-2-methyl-azetidine-2-carboxylic acid (4-chloro-benzyl)-methyl-amide], `COC(=O)[C@@H](C)N(Cc1ccc(Cl)cc1)C(=O)C1(C)CCN1C(=O)Cc1cc(C)cc(C)c1` (stereo partly drawn) [Compound 73, (R)-2-((4-Chloro-benzyl)-{1-[2-(3,5-dimethyl-phenyl)-acetyl]-2-methyl-azetidine-2-carbonyl}-amino)-propionic acid methyl ester] is lower in IC50: over 1000 nM for the first, 501 to 1000 nM for the second. The second is the more potent here.

Compared with `C[C@@H](c1ccc(Cl)cc1)N(CCCS(N)(=O)=O)C(=O)C1(C)CCN1C(=O)c1csc2ccccc12` (stereo partly drawn) [Compound 209, 1-(benzo[b]thiophene-3-carbonyl)-N-((S)-1-(4-chlorophenyl)ethyl)-2-methyl-N-(3-sulfamoylpropyl)azetidine-2-carboxamide], `C[C@H](c1ccc(Cl)cc1)N(CCCC(=O)O)C(=O)[C@@]1(C)CCN1C(=O)c1csc2ccccc12` [Compound 197, 4-{[(R)-1-(Benzo[b]thiophene-3-carbonyl)-2-methyl-azetidine-2-carbonyl]-[(R)-1-(4-chloro-phenyl)-ethyl]-amino}-butyric acid] is higher in IC50: 101 to 500 nM for the first, 501 to 1000 nM for the second.

`CCCC1(C(=O)N(CCCC(=O)NS(C)(=O)=O)Cc2cccc(Cl)c2)CCN1C(=O)c1csc2ccccc12` (stereo not drawn) [Compound 232, 1-(benzo[b]thiophene-3-carbonyl)-N-(3-chlorobenzyl)-N-(4-(methylsulfonamido)-4-oxobutyl)-2-propylazetidine-2-carboxamide] and `CC(C)C1(C(=O)N(CCCC(=O)NS(C)(=O)=O)Cc2cccc(Cl)c2)CCN1C(=O)c1csc2ccccc12` (stereo not drawn) [Compound 233, 1-(benzo[b]thiophene-3-carbonyl)-N-(3-chlorobenzyl)-2-isopropyl-N-(4-(methylsulfonamido)-4-oxobutyl)azetidine-2-carboxamide] fall in the same range of IC50: 101 to 500 nM for the first, 101 to 500 nM for the second.

`CN(Cc1ccc(Cl)cc1)C(=O)C1(C)CCN1C(=O)c1ccc2ccccc2c1` (stereo not drawn) [Compound 126, 1-(2-naphthoyl)-N-(4-chlorobenzyl)-N,2-dimethylazetidine-2-carboxamide] and `CC1(C(=O)N(CCCC(N)=O)Cc2ccc(Cl)cc2)CCN1C(=O)Cc1csc2ccccc12` (stereo not drawn) [Compound 127, 1-(2-Benzo[b]thiophen-3-yl-acetyl)-2-methyl-azetidine-2-carboxylic acid (3-carbamoyl-propyl)-(4-chloro-benzyl)-amide] cannot be ordered by IC50: over 1000 nM for the first, over 1000 nM for the second.

Compared with `COC(=O)CCN(Cc1cccc(Cl)c1)C(=O)C1(C)CCN1C(=O)c1csc2ccccc12` (stereo not drawn) [Compound 172, 3-[[1-(Benzo[b]thiophene-3-carbonyl)-2-methyl-azetidine-2-carbonyl]-(3-chloro-benzyl)-amino]-propionic acid methyl ester], `COC(=O)CCN(Cc1ccc2cn[nH]c2c1)C(=O)C1(C)CCN1C(=O)Cc1csc2ccccc12` (stereo not drawn) [Compound 175, 3-[[1-(2-Benzo[b]thiophen-3-yl-acetyl)-2-methyl-azetidine-2-carbonyl]-(1H-indazol-6-ylmethyl)-amino]-propionic acid methyl ester] is lower in IC50: 101 to 500 nM for the first, 0.01 to 100 nM for the second. The second is the more potent here.

First: O=C(O)CCCN(Cc1cccc(Cl)c1)C(=O)C1(Cc2cccc(C(F)(F)F)c2)CCN1C(=O)c1csc2ccccc12 (stereo not drawn) [Compound 222, 4-(1-(benzo[b]thiophene-3-carbonyl)-N-(3-chlorobenzyl)-2-(3-(trifluoromethyl)benzyl)azetidine-2-carboxamido)butanoic acid]
Second: CC1(C(=O)N(CCCC(=O)O)Cc2ccc3scnc3c2)CCN1C(=O)Cc1csc2ccccc12 (stereo not drawn) [Compound 183, 4-{[1-(2-Benzo[b]thiophen-3-yl-acetyl)-2-methyl-azetidine-2-carbonyl]-benzothiazol-5-ylmethyl-amino}-butyric acid]
The IC50 of the first is higher: over 1000 nM for the first, 0.01 to 100 nM for the second.

First: COc1ccc(CNS(=O)(=O)CCCN(Cc2ccc(Cl)cc2)C(=O)C2(C)CCN2C(=O)Cc2cc(C)cc(C)c2)c(OC)c1 (stereo not drawn) [Compound 168, 1-[2-(3,5-Dimethyl-phenyl)-acetyl]-2-methyl-azetidine-2-carboxylic acid (4-chloro-benzyl)-[3-(2,4-dimethoxy-benzylsulfamoyl)-propyl]-amide]
Second: Cc1cc(C)cc(CC(=O)N2CCC2(C)C(=O)N(Cc2ccc(Cl)cc2)Cc2noc(O)n2)c1 (stereo not drawn) [Compound 114, 1-[2-(3,5-Dimethyl-phenyl)-acetyl]-2-methyl-azetidine-2-carboxylic acid (4-chloro-benzyl)-(5-hydroxy-[1,2,4]oxadiazol-3-ylmethyl)-amide]
The IC50 of the first is higher: over 1000 nM for the first, 501 to 1000 nM for the second. The second is the more potent here.
